The source of these data is publication doi:10.1101/2023.05.04.537313v1 (biorxiv, 2023).

This test deals with T1, SLC1A3 (Homo sapiens, UniProt P43003).
T1 construct: overexpressed in HEK293-JI cells co-expressing iAspSnFR
Nature of the test: cellular uptake read by iAspSnFR, flow cytometry. The test is classed as cell-based. The note with it: range is the 95% CI, no central value printed; 3 h starved cells, 30 min incubation; first (TFB-TBOA-sensitive) phase of a biphasic curve; read-out: K0.5.

T1 sequence (P43003 whole entry): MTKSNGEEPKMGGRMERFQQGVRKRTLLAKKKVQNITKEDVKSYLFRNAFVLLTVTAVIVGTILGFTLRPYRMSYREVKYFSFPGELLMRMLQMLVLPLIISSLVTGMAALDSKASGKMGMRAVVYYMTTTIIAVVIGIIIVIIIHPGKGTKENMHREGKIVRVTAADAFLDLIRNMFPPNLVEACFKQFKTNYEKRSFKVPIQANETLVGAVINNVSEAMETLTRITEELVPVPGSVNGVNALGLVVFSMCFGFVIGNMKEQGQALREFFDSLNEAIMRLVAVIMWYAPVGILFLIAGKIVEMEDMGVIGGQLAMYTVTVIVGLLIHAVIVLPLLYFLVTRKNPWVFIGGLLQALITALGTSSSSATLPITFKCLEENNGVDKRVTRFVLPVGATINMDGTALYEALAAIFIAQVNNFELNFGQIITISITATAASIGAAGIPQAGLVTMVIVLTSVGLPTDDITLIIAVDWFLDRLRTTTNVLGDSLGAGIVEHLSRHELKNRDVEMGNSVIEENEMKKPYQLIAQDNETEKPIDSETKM

Turning to `N[C@@H](CC(=O)O)C(=O)O` [aspartate], the Km was 9 to 47 µM.
